From the supplement of paper PMC11208160

Assay: recombinant barcode read abundance after kanamycin selection (control-corrected) (log10(CPM+1)); higher = more efficient recombination; sequences stand for … in AGTGCAGAGAAAATCGGCCAGTTTTCTCTGCCTGCAGTCCGCATGCCGT…AGATTTATGCAGCGGACTGCCTTTCTCCCAAAGTGATAAACCGGACAGTATCATGGACCGGTTTTCCCGGTAATCCGTATTTGCAAGGTTGGTTTCACT; site = the 11-nt target
Method in brief: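 Pooled E. coli screen pairing targets with IS621 bridge RNA target-binding loops. Each oligo (promoter, target, barcode, J23119-driven first 104 bridge RNA bases) was Gibson-cloned into a vector with the remaining 73 bp and T7-inducible recombinase, then co-electroporated with a donor plasmid. Two replicates each were plated on chloramphenicol/ampicillin LB agar (control) or chloramphenicol/ampicillin/kanamycin with 0.1 mM IPTG. Recombination efficiency is recombinant-junction barcode counts as CPM, averaged, control-corrected, reported as log10(CPM+1).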
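Also: IS621 recombinase and bridge RNA in Escherichia coli cells.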

## GCGCTTACTTGGGTTCTAACCTGTTGCCT (site GAGCTTACTAG)
  recombinant barcode read abundance (log10): 0.191

## GCGCTTACTTGGGTTCTAACCTGTTGCCT (site GCGCTTACTAG)
  recombinant barcode read abundance (log10): 0.665

## GCGCTTACTTGGGTTCTAACCTGTTGCCT (site GGGCTTACTAG)
  recombinant barcode read abundance (log10): 0.0205

## GCGCTTACTTGGGTTCTAACCTGTTGCCT (site GTGCTTACTAG)
  recombinant barcode read abundance (log10): 0.0591

## GCGGAAGCTTGGGTTCTAACCTGTTGCCT (site GAGGAAGCTAG)
  recombinant barcode read abundance (log10): 0.192

## GCGGAAGCTTGGGTTCTAACCTGTTGCCT (site GCGGAAGCTAG)
  recombinant barcode read abundance (log10): 0.312

## GCGGAAGCTTGGGTTCTAACCTGTTGCCT (site GGGGAAGCTAG)
  recombinant barcode read abundance (log10): 0.469

## GCGGAAGCTTGGGTTCTAACCTGTTGCCT (site GTGGAAGCTAG)
  recombinant barcode read abundance (log10): 0.181

## GCGGGGTCTTGGGTTCTAACCTGTTGCCT (site ACGGGGTCTAG)
  recombinant barcode read abundance (log10): 0.786

## GCGGGGTCTTGGGTTCTAACCTGTTGCCT (site CCGGGGTCTAG)
  recombinant barcode read abundance (log10): 0.627

## GCGGGGTCTTGGGTTCTAACCTGTTGCCT (site GCGGGGTCTAG)
  recombinant barcode read abundance (log10): 1.2

## GCGGGGTCTTGGGTTCTAACCTGTTGCCT (site TCGGGGTCTAG)
  recombinant barcode read abundance (log10): 0.231

## GCGGTATCTTGGGTTCTAACCTGTTGCCT (site GCGGTATCTAG)
  recombinant barcode read abundance (log10): 1.21

## GCGGTATCTTGGGTTCTAACCTGTTGCCT (site GGGGTATCTAG)
  recombinant barcode read abundance (log10): 0.105

## GCGGTGACTTGGGTTCTAACCTGTTGCCT (site ACGGTGACTAG)
  recombinant barcode read abundance (log10): 0.942

## GCGGTGACTTGGGTTCTAACCTGTTGCCT (site CCGGTGACTAG)
  recombinant barcode read abundance (log10): 0.172

## GCGGTGACTTGGGTTCTAACCTGTTGCCT (site GCGGTGACTAG)
  recombinant barcode read abundance (log10): 1.48

## GCGGTGACTTGGGTTCTAACCTGTTGCCT (site TCGGTGACTAG)
  recombinant barcode read abundance (log10): 0.074

## GCGTACCCTTGGGTTCTAACCTGTTGCCT (site GAGTACCCTAG)
  recombinant barcode read abundance (log10): 0.404

## GCGTACCCTTGGGTTCTAACCTGTTGCCT (site GCGTACCCTAG)
  recombinant barcode read abundance (log10): 1.41

## GCGTACCCTTGGGTTCTAACCTGTTGCCT (site GGGTACCCTAG)
  recombinant barcode read abundance (log10): 0.0245

## GCGTACCCTTGGGTTCTAACCTGTTGCCT (site GTGTACCCTAG)
  recombinant barcode read abundance (log10): 0.0662

## GCGTACTCTTGGGTTCTAACCTGTTGCCT (site GCGGACTCTTG)
  recombinant barcode read abundance (log10): 0.0368

## GCGTACTCTTGGGTTCTAACCTGTTGCCT (site GCGTACTCTAG)
  recombinant barcode read abundance (log10): 2.02

## GCGTCCACTTGGGTTCTAACCTGTTGCCT (site GCATCCACTAG)
  recombinant barcode read abundance (log10): 0.398

## GCGTCCACTTGGGTTCTAACCTGTTGCCT (site GCGTCCACTAG)
  recombinant barcode read abundance (log10): 0.0111

## GCGTGTACTTGGGTTCTAACCTGTTGCCT (site GCGGGTACTAG)
  recombinant barcode read abundance (log10): 0.208

## GCGTGTACTTGGGTTCTAACCTGTTGCCT (site GCGTGTACTAG)
  recombinant barcode read abundance (log10): 0.948

## GCTAAGTCTTGGGTTCTAACCTGTTGCGT (site GCGGAGTCTAC)
  recombinant barcode read abundance (log10): 0.166

## GCTAAGTCTTGGGTTCTAACCTGTTGCGT (site GCTAAGTCTAC)
  recombinant barcode read abundance (log10): 2.61

## GCTAGTCCTTGGGTTCTAACCTGTTGCGT (site GCTAGTCCTAC)
  recombinant barcode read abundance (log10): 2.14

## GCTAGTCCTTGGGTTCTAACCTGTTGCGT (site GCTAGTCCTCA)
  recombinant barcode read abundance (log10): 0.0737

## GCTATGTCTTGGGTTCTAACCTGTTGCCT (site GCTATGTCTAG)
  recombinant barcode read abundance (log10): 1.42

## GCTATGTCTTGGGTTCTAACCTGTTGCCT (site GGTATGTCTAA)
  recombinant barcode read abundance (log10): 0.0851

## GCTCAGTCTTGGGTTCTAACCTGTTGCCT (site GCTCAGACTAG)
  recombinant barcode read abundance (log10): 0.00917

## GCTCAGTCTTGGGTTCTAACCTGTTGCCT (site GCTCAGCCTAG)
  recombinant barcode read abundance (log10): 0.645

## GCTCAGTCTTGGGTTCTAACCTGTTGCCT (site GCTCAGGCTAG)
  recombinant barcode read abundance (log10): 0.218

## GCTCAGTCTTGGGTTCTAACCTGTTGCCT (site GCTCAGTCTAG)
  recombinant barcode read abundance (log10): 1.78

## GCTCATGCTTGGGTTCTAACCTGTTGCCT (site GCTCATGCTAG)
  recombinant barcode read abundance (log10): 1.92

## GCTCATGCTTGGGTTCTAACCTGTTGCCT (site GCTCATTCTAG)
  recombinant barcode read abundance (log10): 0.132

## GCTCATTCTTGGGTTCTAACCTGTTGCCT (site GCTCATGCTAG)
  recombinant barcode read abundance (log10): 0

## GCTCATTCTTGGGTTCTAACCTGTTGCCT (site GCTCATTCTAG)
  recombinant barcode read abundance (log10): 0.557

## GCTCCATCTTGGGTTCTAACCTGTTGCCT (site GATCCATCTAG)
  recombinant barcode read abundance (log10): 0.0768

## GCTCCATCTTGGGTTCTAACCTGTTGCCT (site GCTCCATCTAG)
  recombinant barcode read abundance (log10): 0.941

## GCTCCATCTTGGGTTCTAACCTGTTGCCT (site GGTCCATCTAG)
  recombinant barcode read abundance (log10): 0.122

## GCTCCATCTTGGGTTCTAACCTGTTGCCT (site GTTCCATCTAG)
  recombinant barcode read abundance (log10): 0.291

## GCTCCTCCTTGGGTTCTAACCTGTTGCAT (site ATAGAGTCTCG)
  recombinant barcode read abundance (log10): 0.0486

## GCTCCTCCTTGGGTTCTAACCTGTTGCAT (site GCTCCTCCTAT)
  recombinant barcode read abundance (log10): 1.15

## GCTCGAACTTGGGTTCTAACCTGTTGCCT (site GCACGAACTAG)
  recombinant barcode read abundance (log10): 0.46

## GCTCGAACTTGGGTTCTAACCTGTTGCCT (site GCCCGAACTAG)
  recombinant barcode read abundance (log10): 0.138

## GCTCGAACTTGGGTTCTAACCTGTTGCCT (site GCGCGAACTAG)
  recombinant barcode read abundance (log10): 0.00752

## GCTCGAACTTGGGTTCTAACCTGTTGCCT (site GCTCGAACTAG)
  recombinant barcode read abundance (log10): 0.38

## GCTCGTGCTTGGGTTCTAACCTGTTGCCT (site GCACGTGCTAG)
  recombinant barcode read abundance (log10): 0.69

## GCTCGTGCTTGGGTTCTAACCTGTTGCCT (site GCCCGTGCTAG)
  recombinant barcode read abundance (log10): 0.278

## GCTCGTGCTTGGGTTCTAACCTGTTGCCT (site GCGCGTGCTAG)
  recombinant barcode read abundance (log10): 0.238

## GCTCGTGCTTGGGTTCTAACCTGTTGCCT (site GCTCGTGCTAG)
  recombinant barcode read abundance (log10): 1.1

## GCTGAGGCTTGGGTTCTAACCTGTTGCCA (site CTCTGCTCTGA)
  recombinant barcode read abundance (log10): 0.165

## GCTGAGGCTTGGGTTCTAACCTGTTGCCA (site GCTGAGGCTTG)
  recombinant barcode read abundance (log10): 0.636

## GCTGAGTCTTGGGTTCTAACCTGTTGCTA (site AGGCCCACTAT)
  recombinant barcode read abundance (log10): 0.0625

## GCTGAGTCTTGGGTTCTAACCTGTTGCTA (site GCTGAGTCTTA)
  recombinant barcode read abundance (log10): 2.08

## GCTGCTCCTTGGGTTCTAACCTGTTGCGT (site GCGGGTCCTAC)
  recombinant barcode read abundance (log10): 0.0749

## GCTGCTCCTTGGGTTCTAACCTGTTGCGT (site GCTGCTCCTAC)
  recombinant barcode read abundance (log10): 1.82

## GCTGGGCCTTGGGTTCTAACCTGTTGCGA (site GATGGGCCTAC)
  recombinant barcode read abundance (log10): 0.0848

## GCTGGGCCTTGGGTTCTAACCTGTTGCGA (site GCTGGGCCTTC)
  recombinant barcode read abundance (log10): 2.17

## GCTGTATCTTGGGTTCTAACCTGTTGCCT (site ACTGTATCTAG)
  recombinant barcode read abundance (log10): 0.288

## GCTGTATCTTGGGTTCTAACCTGTTGCCT (site CCTGTATCTAG)
  recombinant barcode read abundance (log10): 0.163
